Calls of active or inactive are those of the source. The calls are words filed in the database; no cut-off is given here.
What was measured:
[1] = target: T1, Protein cereblon/Tyrosine-protein kinase BTK (Homo sapiens, UniProt Q06187+Q96SW2); experiment: PROTAC activity at BTK/CRBN in human MINO cells assessed as BTK protein degradation at 100 nM measured after 24 hrs by Western blotting analysis relative to control; assay type: cell-based
Target sequence in this assay (Q06187 2-659 limits assumed): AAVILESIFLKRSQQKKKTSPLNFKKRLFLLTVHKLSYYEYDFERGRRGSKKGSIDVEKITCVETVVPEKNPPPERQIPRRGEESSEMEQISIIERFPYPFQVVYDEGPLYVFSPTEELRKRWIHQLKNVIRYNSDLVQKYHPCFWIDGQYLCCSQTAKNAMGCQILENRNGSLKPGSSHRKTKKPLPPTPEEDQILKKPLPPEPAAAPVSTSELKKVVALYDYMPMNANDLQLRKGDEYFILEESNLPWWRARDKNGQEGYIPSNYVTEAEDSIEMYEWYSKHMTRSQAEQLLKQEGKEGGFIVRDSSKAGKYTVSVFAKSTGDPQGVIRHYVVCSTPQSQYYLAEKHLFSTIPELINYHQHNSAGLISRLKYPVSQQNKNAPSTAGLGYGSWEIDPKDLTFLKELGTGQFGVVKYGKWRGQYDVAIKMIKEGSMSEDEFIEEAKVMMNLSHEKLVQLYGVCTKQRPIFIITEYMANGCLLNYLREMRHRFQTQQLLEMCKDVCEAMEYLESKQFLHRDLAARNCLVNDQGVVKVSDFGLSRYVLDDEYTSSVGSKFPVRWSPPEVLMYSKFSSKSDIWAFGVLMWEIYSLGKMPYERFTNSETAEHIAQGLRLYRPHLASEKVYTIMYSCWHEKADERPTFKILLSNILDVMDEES
Target sequence in this assay (Q96SW2 whole entry partner): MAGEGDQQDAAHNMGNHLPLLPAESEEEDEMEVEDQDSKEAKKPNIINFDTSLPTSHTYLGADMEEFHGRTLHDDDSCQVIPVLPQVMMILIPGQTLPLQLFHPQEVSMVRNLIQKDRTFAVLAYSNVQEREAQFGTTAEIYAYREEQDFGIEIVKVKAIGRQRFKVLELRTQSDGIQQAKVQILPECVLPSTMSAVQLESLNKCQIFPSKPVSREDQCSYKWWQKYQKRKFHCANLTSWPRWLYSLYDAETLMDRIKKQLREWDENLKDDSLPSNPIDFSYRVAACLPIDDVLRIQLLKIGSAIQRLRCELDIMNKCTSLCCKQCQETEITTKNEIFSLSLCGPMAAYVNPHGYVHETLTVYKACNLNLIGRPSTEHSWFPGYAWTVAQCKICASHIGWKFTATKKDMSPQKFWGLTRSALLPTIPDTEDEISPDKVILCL

[2] = target: T1, Protein cereblon/Tyrosine-protein kinase BTK; experiment: PROTAC activity at BTK/CRBN in human MINO cells assessed as BTK protein degradation at 20 nM measured after 24 hrs by Western blotting analysis relative to control; assay type: cell-based
Target sequence in this assay (Q06187 2-659 limits assumed): as the sequence (Q06187 2-659 limits assumed) above
Target sequence in this assay (Q96SW2 whole entry partner): as the sequence (Q96SW2 whole entry partner) above

[3] = AUC (0 to infinity) in Sprague-Dawley rat at 4 mg/kg, ip measured upto 48 hrs; assay type: ADME, organism-based; details: in vivo
[4] = AUC (0 to t) in Sprague-Dawley rat at 4 mg/kg, ip measured upto 48 hrs; assay type: ADME, organism-based; details: in vivo
[5] = Cmax in Sprague-Dawley rat at 4 mg/kg, ip measured upto 48 hrs; assay type: ADME, organism-based; details: in vivo
[6] = target: T1, Protein cereblon/Tyrosine-protein kinase BTK; experiment: PROTAC activity at BTK/CRBN in human MINO cells assessed as BTK protein degradation measured for 4 hrs by Western blotting analysis; assay type: cell-based
Target sequence in this assay (Q06187 whole entry): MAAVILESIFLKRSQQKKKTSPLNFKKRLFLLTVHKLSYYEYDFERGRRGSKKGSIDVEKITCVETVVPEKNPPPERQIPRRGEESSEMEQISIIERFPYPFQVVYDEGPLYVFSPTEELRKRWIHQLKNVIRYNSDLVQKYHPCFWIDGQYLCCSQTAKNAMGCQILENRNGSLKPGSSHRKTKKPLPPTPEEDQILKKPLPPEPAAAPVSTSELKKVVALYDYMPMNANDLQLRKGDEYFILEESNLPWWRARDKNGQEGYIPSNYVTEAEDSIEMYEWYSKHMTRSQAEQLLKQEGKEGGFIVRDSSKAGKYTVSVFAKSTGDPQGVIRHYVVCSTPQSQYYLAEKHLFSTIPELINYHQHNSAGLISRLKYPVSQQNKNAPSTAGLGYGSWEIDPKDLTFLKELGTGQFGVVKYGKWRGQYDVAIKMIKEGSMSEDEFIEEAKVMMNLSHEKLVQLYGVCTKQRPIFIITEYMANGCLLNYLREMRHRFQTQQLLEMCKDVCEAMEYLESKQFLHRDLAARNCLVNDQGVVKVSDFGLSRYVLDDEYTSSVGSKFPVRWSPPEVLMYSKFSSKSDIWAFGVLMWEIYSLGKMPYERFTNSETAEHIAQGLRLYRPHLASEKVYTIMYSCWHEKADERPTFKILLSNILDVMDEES
Target sequence in this assay (Q96SW2 whole entry): as the sequence (Q96SW2 whole entry partner) above

[7] = target: T1, Protein cereblon/Tyrosine-protein kinase BTK; experiment: PROTAC activity at BTK/CRBN in human MINO cells assessed as BTK protein degradation half life at 20 nM by Western blotting analysis; assay type: cell-based
Target sequence in this assay (Q06187 2-659 limits assumed): as the sequence (Q06187 2-659 limits assumed) above
Target sequence in this assay (Q96SW2 whole entry partner): as the sequence (Q96SW2 whole entry partner) above

[8] = target: T1, Protein cereblon/Tyrosine-protein kinase BTK; experiment: PROTAC activity at BTK/CRBN in human MINO cells assessed as BTK protein degradation by measuring onset time activity at 20 nM by Western blotting analysis; assay type: cell-based
Target sequence in this assay (Q06187 2-659 limits assumed): as the sequence (Q06187 2-659 limits assumed) above
Target sequence in this assay (Q96SW2 whole entry partner): as the sequence (Q96SW2 whole entry partner) above

[9] = target: T1, Protein cereblon/Tyrosine-protein kinase BTK; experiment: PROTAC activity at BTK/CRBN in human MINO cells assessed as BTK protein degradation at 20 nM measured after 4 to 8 hrs by Western blotting analysis; assay type: cell-based; details: time 4-8 hrs
Target sequence in this assay (Q06187 2-659 limits assumed): as the sequence (Q06187 2-659 limits assumed) above
Target sequence in this assay (Q96SW2 whole entry partner): as the sequence (Q96SW2 whole entry partner) above

[10] = target: T1, Protein cereblon/Tyrosine-protein kinase BTK; experiment: PROTAC activity at BTK/CRBN in human MINO cells assessed as BTK protein degradation at 20 nM by Western blotting analysis; assay type: cell-based; details: time lower 2.0 hrs, time upper […], TDE = time-dependent effect
Target sequence in this assay (Q06187 2-659 limits assumed): as the sequence (Q06187 2-659 limits assumed) above
Target sequence in this assay (Q96SW2 whole entry partner): as the sequence (Q96SW2 whole entry partner) above

Protein cereblon = Protein cereblon (Homo sapiens, UniProt Q96SW2); experiment: Inhibition of CRBN (unknown origin) measured after 60 mins incubation by BMG reader
Protein cereblon, sequence (Q96SW2 whole entry): as the sequence (Q96SW2 whole entry partner) above

[11] = target: T1, Protein cereblon/Tyrosine-protein kinase BTK; experiment: Binding affinity to BTK/CRBN (unknown origin) assessed as ternary complex formation by measuring peak HTRF ratio at wavelength 665/620 nm measured after 60 mins incubation by HTRF assay
[12] = target: T1, Protein cereblon/Tyrosine-protein kinase BTK; experiment: PROTAC activity at BTK/CRBN in human MINO cells assessed as BTK protein degradation at 20 nM measured after 48 hrs by Western blotting analysis; assay type: cell-based
[13] = target: T2, Tyrosine-protein kinase BTK (Homo sapiens, UniProt Q06187); experiment: Binding affinity to BTK (unknown origin) assessed as inhibition constant measured after 60 mins incubation by microtiter-plate reader
T2 sequence (Q06187 whole entry): as the sequence (Q06187 whole entry) above

[14] = target: T1, Protein cereblon/Tyrosine-protein kinase BTK; experiment: Binding affinity to BTK/CRBN (unknown origin) assessed as ternary complex formation measured after 60 mins incubation by HTRF assay
Target sequence in this assay (Q06187 whole entry): as above
Target sequence in this assay (Q96SW2 whole entry): as the sequence (Q96SW2 whole entry partner) above

[15] = target: T2, Tyrosine-protein kinase BTK; experiment: Inhibition of BTK (unknown origin) measured after 60 mins incubation by microtiter-plate reader
[16] = target: T1, Protein cereblon/Tyrosine-protein kinase BTK; experiment: PROTAC activity at BTK/CRBN in human MINO cells assessed as BTK protein degradation measured for 24 hrs by Western blotting analysis; assay type: cell-based
Target sequence in this assay (Q06187 whole entry): as the sequence (Q06187 whole entry) above
Target sequence in this assay (Q96SW2 whole entry): as the sequence (Q96SW2 whole entry partner) above

[17] = target: T1, Protein cereblon/Tyrosine-protein kinase BTK; experiment: Binding affinity to BTK/CRBN (unknown origin) assessed as ternary complex formation by measuring peak concentration measured after 60 mins incubation by HTRF assay

Structure (SMILES)	Activity [1] [%]	Activity [2] [%]	other results
O=C1CCC(N2C(=O)c3ccc(N4CCC(CN5CCC(C#Cc6ccc(Nc7ncc(F)c(N8CCC(CO)CC8)n7)cn6)CC5)CC4)cc3C2=O)C(=O)N1 (centres undefined)	35		
Cc1cc(-c2nc(Nc3cnn(C4CCN(CC5CCN(c6ccc7c(c6)C(=O)N(C6CCC(=O)NC6=O)C7=O)CC5)CC4)c3)ncc2F)ccc1CNC(=O)N1CC(OC(C)C)C1 (centres undefined)	95	80	
C=CC(=O)N1CCC[C@@H](n2nc(-c3ccc(Oc4ccccc4)cc3)c3c(N)ncnc32)C1 [IBRUTINIB]			AUC(0-inf) [3]: 11700 ng·h/mL; AUC(0-t) at 48 h [4]: 11200 ng·h/mL; Cmax [5]: 3460 ng/mL
NC(=O)c1ncc(N2CCCCC2)nc1Nc1ccc(C2CCN(C[C@@H]3CCN(c4ccc5c(c4)C(=O)N(C4CCC(=O)NC4=O)C5=O)C3)CC2)cc1 (some centres undefined)	99	96	DC50 [6]: 4.86 nM; T1/2 [7]: 1.25 h; TIME [8]: < 1 h
Cc1cc(-c2nc(Nc3ccn(C4CCN(CC5CCN(c6ccc7c(c6)C(=O)N(C6CCC(=O)NC6=O)C7=O)CC5)CC4)n3)ncc2F)ccc1CNC(=O)c1noc(C(C)(C)C)n1 (centres undefined)	99	98	DC50 [6]: 10.3 nM; Activity [9]: Active; T1/2 [7]: 1.1 h; Activity [10]: Tde
Nc1ncnc2c1c(-c1ccc(Oc3ccccc3)cc1)nn2C1CCN(C(=O)CN2CCN(CC3CN(c4ccc5c(c4)C(=O)N(C4CCC(=O)NC4=O)C5=O)C3)CC2)CC1 (centres undefined)	99	95	IC50 (Protein cereblon): 285 nM; Ratio [11]: 13.1; Activity [12]: Active; Ki [13]: 50.3 nM; DC50 [6]: 18.9 nM; EC50 [14]: 2.74 nM; IC50 [15]: 95.5 nM; DC50 [16]: 7.07 nM; T1/2 [7]: 1.51 h; TIME [8]: < 1 h; Activity [10]: Tde; Activity [17]: 37 nM
O=C1CCC(N2C(=O)c3ccc(N4CC(CN5CCN(c6ccc(Nc7ncc(F)c(N8CCC(CO)CC8)n7)cn6)CC5)C4)cc3C2=O)C(=O)N1 (centres undefined)	< 10		
Cc1cc(-c2nc(Nc3ccn(C4CCN(CC5CCN(c6ccc7c(c6)C(=O)N(C6CCC(=O)NC6=O)C7=O)CC5)CC4)n3)ncc2F)ccc1CNC(=O)c1cn(C2CC2)nn1 (centres undefined)	21	99	Activity [10]: Tde
Cc1cc(-c2nc(Nc3ccn(C4CCN(CC5CCN(c6ccc7c(c6)C(=O)N(C6CCC(=O)NC6=O)C7=O)CC5)CC4)n3)ncc2F)ccc1CNC(=O)c1noc(C2CC2)n1 (centres undefined)	63	0	
Cc1cc(-c2nc(Nc3cnn(C4CCN(CC5CCN(c6ncc(-c7ccc(=O)[nH]n7)cc6F)CC5)CC4)c3)ncc2F)ccc1CNC(=O)c1cn(C(C)(C)C)nn1	48		
Cn1cc(Nc2nc(Nc3ccc(N4CCN(CC5CN(c6ccc7c(c6)C(=O)N(C6CCC(=O)NC6=O)C7=O)C5)CC4)cc3)ncc2F)cn1 (centres undefined)	11		
O=C(/C=C/C(F)(F)F)Nc1cccc(Nc2nc(Nc3ccc(N4CCN(C5CN(c6ccc7c(c6)C(=O)N(C6CCC(=O)NC6=O)C7=O)C5)CC4)cc3)ncc2F)c1 (centres undefined)	26		
O=C1CCC(N2C(=O)c3ccc(N4CC(CN5CCN(c6ccc(Nc7ncc(F)c(N8CCC(CO)CC8)n7)cc6)CC5)C4)cc3C2=O)C(=O)N1 (centres undefined)	< 10		
Cc1cc(-c2nc(Nc3ccn(C4CN(CC5CCN(c6ccc7c(c6)C(=O)N(C6CCC(=O)NC6=O)C7=O)CC5)C4)n3)ncc2F)ccc1CNC(=O)c1nc(C(C)(C)C)no1 (centres undefined)	99	96	
Cc1cc(-c2nc(Nc3cnn(C4CN(CC5CCN(c6ccc7c(c6)C(=O)N(C6CCC(=O)NC6=O)C7=O)CC5)C4)c3)ncc2F)ccc1CNC(=O)c1cn(C(C)(C)C)nn1 (centres undefined)	99	99	DC50 [6]: 2.49 nM; Activity [9]: Active; T1/2 [7]: 0.71 h; TIME [8]: < 0.5 h; Activity [10]: Tde
CC#CC(=O)Nc1cccc(Nc2nc(Nc3ccc(N4CCN(C5CN(c6ccc7c(c6)C(=O)N(C6CCC(=O)NC6=O)C7=O)C5)CC4)cc3)ncc2F)c1 (centres undefined)	70		
Cc1cc(-c2nc(Nc3cnn(C4CCN(C(=O)CCC(=O)N[C@@H](C)C(=O)N[C@H]5CCC(=O)NC5=O)CC4)c3)ncc2F)ccc1CNC(=O)c1cn(C(C)(C)C)nn1	32		
Cc1cc(-c2nc(Nc3ccn(C4CN(CC5CCN(c6ccc7c(c6)C(=O)N(C6CCC(=O)NC6=O)C7=O)CC5)C4)n3)ncc2F)ccc1CNC(=O)c1cnc(C(C)(C)C)s1 (centres undefined)	95	75	
Cc1cc(-c2nc(Nc3ccn(C4CN(CC5CCN(c6ccc7c(c6)C(=O)N(C6CCC(=O)NC6=O)C7=O)CC5)C4)n3)ncc2F)ccc1CNC(=O)c1noc(C(C)(C)C)n1 (centres undefined)	99	78	

Structure (SMILES)	Activity [1] [%]	Activity [2] [%]	other results
Cc1cc(-c2nc(Nc3cnn(C4CCN(CC5CCN(c6ccc(C7CCC(=O)NC7=O)cc6F)CC5)CC4)c3)ncc2F)ccc1CNC(=O)c1cn(C(C)(C)C)nn1 (centres undefined)	57		
O=C1CCC(N2C(=O)c3ccc(N4CCC(CN5CCN(c6ccc(Nc7ncc(F)c(N8CCC(CO)CC8)n7)cn6)CC5)CC4)cc3C2=O)C(=O)N1 (centres undefined)	20		
Cc1cc(-c2nc(Nc3ccn(C4CCN(CC5CCN(c6ccc7c(c6)C(=O)N(C6CCC(=O)NC6=O)C7=O)CC5)CC4)n3)ncc2F)ccc1CNC(=O)c1cnc(C(C)(C)C)s1 (centres undefined)	16	0	
C=CC(=O)Nc1cccc(Nc2nc(Nc3ccc(N4CCN(C5CN(c6ccc7c(c6)C(=O)N(C6CCC(=O)NC6=O)C7=O)C5)CC4)cc3)ncc2F)c1 (centres undefined)	< 10		
O=C1CCC(N2C(=O)c3ccc(N4CCC(CN5CCN(c6ccc(Nc7ncc(F)c(N8CCC[C@@H](N9CCOC9=O)C8)n7)cc6)CC5)CC4)cc3C2=O)C(=O)N1 (some centres undefined)	39		
O=C1CCC(N2C(=O)c3ccc(N4CC(CN5CCN(c6ccc(Nc7ncc(F)c(N8CCC[C@@H](N9CCOC9=O)C8)n7)cc6)CC5)C4)cc3C2=O)C(=O)N1 (some centres undefined)	< 10		
O=C1CCC(N2C(=O)c3ccc(N4CC(CN5CCN(c6ccc(Nc7ncc(F)c(-n8cccn8)n7)cc6)CC5)C4)cc3C2=O)C(=O)N1 (centres undefined)	< 10		
Cc1cc(-c2nc(Nc3cnn(C4CN(CC5CCN(c6ccc7c(c6)C(=O)N(C6CCC(=O)NC6=O)C7=O)CC5)C4)c3)ncc2F)ccc1CNC(=O)c1ccc(C(C)(C)C)cc1 (centres undefined)	29	0	
CN1CCN([C@@H]2CCCN(c3nc(Nc4ccc(N5CCN(CC6CCN(c7ccc8c(c7)C(=O)N(C7CCC(=O)NC7=O)C8=O)CC6)CC5)cc4)ncc3F)C2)C1=O (some centres undefined)	30		
Cc1cc(-c2nc(Nc3cnn(C4CCN(CC5CCN(c6ccc7c(c6)C(=O)N(C6CCC(=O)NC6=O)C7=O)CC5)CC4)c3)ncc2F)ccc1CNC(=O)c1ccc(C(C)(C)C)cc1 (centres undefined)	49	0	
CN1CCN([C@@H]2CCCN(c3nc(Nc4ccc(N5CCN(CC6CN(c7ccc8c(c7)C(=O)N(C7CCC(=O)NC7=O)C8=O)C6)CC5)cc4)ncc3F)C2)C1=O (some centres undefined)	< 10		
C=CC(=O)Nc1cccc(Nc2nc(Nc3ccc(N4CCN(CC5CCN(c6ccc7c(c6)C(=O)N(C6CCC(=O)NC6=O)C7=O)CC5)CC4)cc3)ncc2F)c1 (centres undefined)	28		
O=C1CCC(N2C(=O)c3ccc(N4CCC(N5CCN(c6ccc(Nc7ncc(F)c(N8CCC(CO)CC8)n7)cc6)CC5)CC4)cc3C2=O)C(=O)N1 (centres undefined)	< 10		
C#CC(=O)Nc1cccc(Nc2nc(Nc3ccc(N4CCN(C5CN(c6ccc7c(c6)C(=O)N(C6CCC(=O)NC6=O)C7=O)C5)CC4)cc3)ncc2F)c1 (centres undefined)	54		
Cc1cc(-c2nc(Nc3ccn(C4CCN(CC5CCN(c6ccc7c(c6)C(=O)N(C6CCC(=O)NC6=O)C7=O)CC5)CC4)n3)ncc2F)ccc1CNC(=O)c1nc(C(C)(C)C)no1 (centres undefined)	99	99	
O=C1CCC(N2C(=O)c3ccc(N4CC(CN5CCC(C#Cc6ccc(Nc7ncc(F)c(N8CCC(CO)CC8)n7)cn6)CC5)C4)cc3C2=O)C(=O)N1 (centres undefined)	20		
Cc1cc(-c2nc(Nc3ccn(C4CN(CC5CCN(c6ccc7c(c6)C(=O)N(C6CCC(=O)NC6=O)C7=O)CC5)C4)n3)ncc2F)ccc1CNC(=O)c1cn(C2CC2)nn1 (centres undefined)	97	92	
O=C1CCC(N2C(=O)c3ccc(N4CCC(CN5CCN(c6ccc(Nc7ncc(F)c(N8CCC(CO)CC8)n7)cc6)CC5)CC4)cc3C2=O)C(=O)N1 (centres undefined)	25		

— ChEMBL document CHEMBL5528048, “Discovery of Novel Potent and Fast BTK PROTACs for the Treatment of Osteoclasts-Related Inflammatory Diseases” (J Med Chem, 2024)
